Consider ten molecules from PubChem BioAssay AID1259411 (Chemical Carcinogenesis Research Information System (CCRIS), 2018).

The structures appear in SMILES notation. The source made the active and inactive calls. How the calls were made is not given here.

The data set relates to rodent carcinogenicity bioassays, tumor incidence. As to the kind of experiment: CCRIS carcinogenicity studies. In short, it runs like this: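 Archive of carcinogenicity, mutagenicity, tumor promotion and tumor inhibition results drawn from journals, NCI reports and other sources, expert-reviewed; covers 1985-2011 and is no longer updated.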

Turning to `CC(C)CN(N=O)C(N)=O`, under “Species: RAT, Strain/Sex: DONRYU/FEMALE, Route: ORAL, Dose: 100, 200, 400 PPM IN DRINKING WATER, Dose: 100, 200, 400 PPM IN DRINKING WATER, Tumor Site: Type of Lesion: DUODENUM: BENIGN HEMANGIOENDOTHELIOMA, MALIGNANT HEMANGIOENDOTHELIOMA”, the carcinogen call is “active; positive”.
As for `CC1=CC(O)=NS(=O)(=O)O1`, the carcinogen call (Species: MOUSE, Strain/Sex: SWISS/FEMALE, Route: ORAL, Dose: 0, 3000, 10000, 30000 PPM IN DIET FOR 80 WK (STUDY DURATION: 80 WK), Dose: 0, 3000, 10000, 30000 PPM IN DIET FOR 80 WK (STUDY DURATION: 80 WK)) was “inactive; negative”; the carcinogen call (Species: MOUSE, Strain/Sex: SWISS/MALE, Route: ORAL, Dose: 0, 3000, 10000, 30000 PPM IN DIET FOR 80 WK (STUDY DURATION: 80 WK), Dose: 0, 3000, 10000, 30000 PPM IN DIET FOR 80 WK (STUDY DURATION: 80 WK)) was “inactive; negative”; the carcinogen call (Species: RAT, Strain/Sex: CPB-WK SPF/FEMALE, Route: ORAL, Dose: 0, 3000, 10000, 30000 PPM IN DIET FOR 113 WK (STUDY DURATION: 113 WK), Dose: 0, 3000, 10000, 30000 PPM IN DIET FOR 113 WK (STUDY DURATION: 113 WK)) was “inactive; negative”; the carcinogen call (Species: RAT, Strain/Sex: CPB-WK SPF/MALE, Route: ORAL, Dose: 0, 3000, 10000, 30000 PPM IN DIET FOR 120 WK (STUDY DURATION: 120 WK), Dose: 0, 3000, 10000, 30000 PPM IN DIET FOR 120 WK (STUDY DURATION: 120 WK)) is “inactive; negative”.
`O=C1c2cccc(O)c2C(=O)c2c(O)cccc21`: the carcinogen call (Species: MOUSE, Strain/Sex: C3H/HEN/MALE, Route: ORAL, Dose: 0, 0.2% IN DIET FOR DURATION OF STUDY (STUDY DURATION: 540 D), Tumor Site: Type of Lesion: LIVER: HEPATOCELLULAR CARCINOMA) is “active; positive” and the carcinogen call (Species: RAT, Strain/Sex: ACI/MALE, Route: ORAL, Dose: 0, 1% IN DIET FOR DURATION OF STUDY (STUDY DURATION: 16 MO), Tumor Site: Type of Lesion: INTESTINE: ADENOMA OR CARCINOMA) is “active; positive”.
With `CC1(C)[C@H](C(=O)O[C@H](C#N)c2cccc(Oc3ccccc3)c2)[C@@H]1C=C(Br)Br`, the carcinogen call was “inactive; negative” (Species: MOUSE, Strain/Sex: C57BL/FEMALE, Route: INTRAGASTRIC, Dose: 0, 1, 4, 8 MG/KG IN ARACHIS OIL 5 D/WK FOR 104 WK (STUDY DURATION: 120 WK), Dose: 0, 1, 4, 8 MG/KG IN ARACHIS OIL 5 D/WK FOR 104 WK (STUDY DURATION: 120 WK)); “inactive; negative” (Species: MOUSE, Strain/Sex: C57BL/MALE, Route: INTRAGASTRIC, Dose: 0, 1, 4, 8 MG/KG IN ARACHIS OIL 5 D/WK FOR 104 WK (STUDY DURATION: 120 WK), Dose: 0, 1, 4, 8 MG/KG IN ARACHIS OIL 5 D/WK FOR 104 WK (STUDY DURATION: 120 WK)); “inactive; negative” (Species: MOUSE, Strain/Sex: SWISS/MALE, FEMALE, Route: DERMAL, Dose: 0, 1, 2, 4 MG/KG BW IN 200 µL ACETONE 3/WK FOR 32 WK (STUDY DURATION: 32 WK), Dose: 0, 1, 2, 4 MG/KG BW IN 200 µL ACETONE 3/WK FOR 32 WK (STUDY DURATION: 32 WK)); “inactive; negative” (Species: Mouse, Strain/Sex: Crl:CD-1(ICR)BR/Female (50/Group), Route: Oral, Dose: 0, 10, 100, 1000, 2000 ppm in feed for 97 wk, Dose: 0, 10, 100, 1000, 2000 ppm in feed for 97 wk); “inactive; negative” (Species: Mouse, Strain/Sex: Crl:CD-1(ICR)BR/Male (50/Group), Route: Oral, Dose: 0, 10, 100, 1000, 2000 ppm in feed for 97 wk, Dose: 0, 10, 100, 1000, 2000 ppm in feed for 97 wk); “active; positive” (Species: RAT, Strain/Sex: BDVI/FEMALE, Route: INTRAGASTRIC, Dose: 0, 3, 6 MG/KG IN ARACHIS OIL 5 D/WK FOR 104 WK (STUDY DURATION: 120 WK), Dose: 0, 3, 6 MG/KG IN ARACHIS OIL 5 D/WK FOR 104 WK (STUDY DURATION: 120 WK), Tumor Site: Type of Lesion: THYROID: ADENOMA). Also, the carcinogen call is, setting by setting: (Species: RAT, Strain/Sex: BDVI/MALE, Route: INTRAGASTRIC, Dose: 0, 3, 6 MG/KG IN ARACHIS OIL 5 D/WK FOR 104 WK (STUDY DURATION: 120 WK), Dose: 0, 3, 6 MG/KG IN ARACHIS OIL 5 D/WK FOR 104 WK (STUDY DURATION: 120 WK), Tumor Site: Type of Lesion: THYROID: ADENOMA) “active; positive”; (Species: Rat, Strain/Sex: Crl:CD(SD)BR/Female (50/Group), Route: Oral, Dose: 0, 25, 125, 500, 800 ppm in feed for 2 yr, Dose: 0, 25, 125, 500, 800 ppm in feed for 2 yr) “inactive; negative”; (Species: Rat, Strain/Sex: Crl:CD(SD)BR/Male (50/Group), Route: Oral, Dose: 0, 25, 125, 500, 800 ppm in feed for 2 yr, Dose: 0, 25, 125, 500, 800 ppm in feed for 2 yr) “inactive; negative”.
As to `CN(N=O)C(=O)NCCC[C@H](N)C(=O)O`, the carcinogen call (Species: HAMSTER, Strain/Sex: SYRIAN/FEMALE, Route: INTRAPERITONEAL, Dose: 218, 654 MG/KG 1/WK FOR 12 WK (LOW DOSE) OR 6 WK (HIGH DOSE), Tumor Site: Type of Lesion: PANCREAS: CARCINOMA, CARCINOMA (IN SITU), PERITONEAL CAVITY: MESOTHELIOMA;MAMMARY GLAND: CARCINOMA, STOMACH: PAPILLOMA,, Tumor Site: Type of Lesion: PANCREAS: CARCINOMA, CARCINOMA (IN SITU), PERITONEAL CAVITY: MESOTHELIOMA;MAMMARY GLAND: CARCINOMA, STOMACH: PAPILLOMA) is “active; positive” and the carcinogen call (Species: HAMSTER, Strain/Sex: SYRIAN/MALE, Route: INTRAPERITONEAL, Dose: 218, 654 MG/KG 1/WK FOR 12 WK (LOW DOSE) OR 6 WK (HIGH DOSE), Tumor Site: Type of Lesion: PANCREAS: CARCINOMA, CARCINOMA (IN SITU), STOMACH: PAPILLOMA) was “active; positive”.
In the case of `C=CC(=O)OCC(CC)CCCC` (configuration not stated), the carcinogen call (Species: MOUSE, Strain/Sex: NMRI/MALE, Route: DERMAL, Dose: 0, 21.5, 43, 85% (W/W) IN ACETONE 3/WK FOR 2 YR (STUDY DURATION: 2 YR), Dose: 0, 21.5, 43, 85% (W/W) IN ACETONE 3/WK FOR 2 YR (STUDY DURATION: 2 YR)) is “inactive; negative”.
Regarding `COc1c(N2C[C@@H]3CCCN[C@@H]3C2)c(F)cc2c(=O)c(C(=O)O)cn(C3CC3)c12`, the carcinogen call (Species: RAT, Strain/Sex: WISTAR/MALE, FEMALE, Route: GAVAGE, Dose: 0, 500 MG/KG BW/D FOR 38 WK (STUDY DURATION: 38 WK)) is “inactive; negative”.
In the case of `Nc1ccc(-n2c3ccccc3c3ccncc32)cc1`, the carcinogen call (Species: RAT, Strain/Sex: F344/MALE (30-33/GROUP), FEMALE (28-32/GROUP), Route: ORAL, Dose: 0, 20, 40 PPM IN DIET FOR 85 WK (STUDY DURATION: 85 WK), Dose: 0, 20, 40 PPM IN DIET FOR 85 WK (STUDY DURATION: 85 WK), Tumor Site: Type of Lesion: LIVER: ADENOMA, HEPATOCELLULAR CARCINOMA, COLON: ADENOCARCINOMA, THYROID: FOLLICULAR CELL ADENOMA AND CARCINOMA, MONONUC, Tumor Site: Type of Lesion: LIVER: ADENOMA, HEPATOCELLULAR CARCINOMA, COLON: ADENOCARCINOMA, THYROID: FOLLICULAR CELL ADENOMA AND CARCINOMA, MONONUC) is “active; positive”.
As to `CCCCN(N=O)C(CCC)OC(C)=O` (configuration not stated), the carcinogen call is “active; positive” (Species: RAT, Strain/Sex: F344/FEMALE, Route: SUBCUTANEOUS, Dose: 38 UMOL/KG IN OLIVE OIL 1/WK FOR 10 WK, Tumor Site: Type of Lesion: INJECTION SITE: MALIGNANT FIBROUS HISTIOCYTOMA) and “active; positive” (Species: RAT, Strain/Sex: F344/MALE, Route: SUBCUTANEOUS, Dose: 38 UMOL/KG IN OLIVE OIL 1/WK FOR 10 WK, Tumor Site: Type of Lesion: INJECTION SITE: MALIGNANT FIBROUS HISTIOCYTOMA, LUNG: ADENOMA).
For `Cc1ncc[nH]1`, the carcinogen call runs as follows: (Species: MOUSE, Strain/Sex: B6C3F1/FEMALE, Route: ORAL (DIET), Dose: 0, 625, 1250, 2500 PPM FOR 105 WKS (STUDY DURATION: 105 WKS), Dose: 0, 625, 1250, 2500 PPM FOR 105 WKS (STUDY DURATION: 105 WKS), Tumor Site: Type of Lesion: LIVER: HEPATOCELLULAR ADENOMA) “active; positive”; (Species: MOUSE, Strain/Sex: B6C3F1/MALE, Route: ORAL (DIET), Dose: 0, 625, 1250, 2500 PPM FOR 105 WKS (STUDY DURATION: 105 WKS), Dose: 0, 625, 1250, 2500 PPM FOR 105 WKS (STUDY DURATION: 105 WKS), Tumor Site: Type of Lesion: LIVER: HEPATOCELLULAR ADENOMA OR CARCINOMA, THYROID: FOLLICULAR CELL ADENOMA) “active; positive”; (Species: RAT, Strain/Sex: F344/N/FEMALE, Route: ORAL (DIET), Dose: 0, 1000, 2500, 5000 PPM FOR 106 WKS (STUDY DURATION: 106 WKS), Dose: 0, 1000, 2500, 5000 PPM FOR 106 WKS (STUDY DURATION: 106 WKS), Tumor Site: Type of Lesion: THYROID: FOLLICULAR CELL ADENOMA OR CARCINOMA) “active; positive”; (Species: RAT, Strain/Sex: F344/N/MALE, Route: ORAL (DIET), Dose: 0, 300, 1000, 3000 PPM FOR 106 WKS (STUDY DURATION: 106 WKS), Dose: 0, 300, 1000, 3000 PPM FOR 106 WKS (STUDY DURATION: 106 WKS)) “inactive; negative”.
